# Target: T1, human GPR40 (Homo sapiens, UniProt O14842)
# T1 construct: expressed in transfected cells; host or cells: HEK cells stably expressing the aequorin reporter
# Assay: Inositol Phosphate Turnover (IP1) Assay 1
# Type: cell-based
# Details: HEK cells stably expressing human GPR40; 15,000 cells per well; compound transferred via pocket tip; CisBio IP-One kit
# Procedure: Human and mouse GPR40 stable cell-lines were generated in CHO cells stably expressing NFAT BLA (Beta-lactamase). A human GPR40 stable cell-line was generated in HEK cells stably expressing the aequorin expressing reporter. The expression plasmids were transfected using lipofectamine (Life Technologies) following manufacturer's instructions. Stable cell-lines were generated following drug selection.
# Inositol Phosphate Turnover (IP1) Assay 1:
# The assay was performed in 384-well format. HEK cells stably expressing human GPR40 were plated at 15,000 cells per well in growth medium (DMEM/10% fetal calf serum). Cell plates were then incubated 16 hours at 37 degrees in a 5% CO2 incubator.
# Measurement of Inositol Phosphate Turnover (IP1) was performed using the CisBio IP-One kit (Part number 62IPAPEB). After the 16 hour incubation, the cells were washed with HEPES buffer and 10 ul of stimulation buffer (prepared as described in the kit) is added to each well. In a separate plate, compounds were diluted in DMSO (400-fold over the final concentration in the assay well) and 25 nl was transferred via pocket tip to the appropriate well in the assay cell plate. The plates were then incubated for 60 minutes at 37 degrees. 10 ul of detection buffer (also prepared as described in the IP-One kit) was added to each well and the plates were incubated for 60 minutes in the dark. The plates were then read in a Perkin Elmer EnVision or equivalent reader able to measure FRET. Fluorescent ratio of emission at 665 and 620 nm was then converted to IP1 concentration by back calculating from an IP1 standard curve prepared at the time of the assay.
# T1 sequence (O14842 whole entry): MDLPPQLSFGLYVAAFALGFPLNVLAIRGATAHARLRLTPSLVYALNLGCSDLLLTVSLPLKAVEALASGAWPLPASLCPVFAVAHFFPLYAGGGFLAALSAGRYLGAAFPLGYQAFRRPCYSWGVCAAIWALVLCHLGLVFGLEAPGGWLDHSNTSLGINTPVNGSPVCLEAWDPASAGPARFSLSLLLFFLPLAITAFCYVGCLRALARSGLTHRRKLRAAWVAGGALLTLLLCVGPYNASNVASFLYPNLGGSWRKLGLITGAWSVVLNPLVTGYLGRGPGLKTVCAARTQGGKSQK
row,EC50 [nM],SMILES
1,2990,COc1ccc(F)c(-c2ccc(C3CCc4ccc([C@H](C5CC5)[C@H](C)C(=O)O)cc4O3)cc2CN)c1 (mixture of isomers) [Example 2]
2,193,COc1cc(-c2ccc(C3CCc4ccc([C@H](C5CC5)[C@H](C)C(=O)O)cc4O3)cc2CN2CCC2)c(F)cn1 (mixture of isomers) [Example 10]
3,8.6,"COc1cc(-c2ccc(C3CCc4ccc([C@H](C5CC5)[C@H](C)C(=O)O)cc4O3)cc2CN(C)C)c(F)cn1 (stereo partly drawn) [Example 1, (2S,3R)-3-cyclopropyl-3-(2-(3-((dimethylamino)methyl)-4-(5-fluoro-2-methoxypyridin-4-yl)phenyl)chroman-7-yl)-2-methylpropanoic acid]"
4,18,COc1cc(-c2ccc(C3CCc4ccc([C@H](C5CC5)[C@H](C)C(=O)O)cc4O3)cc2C(C)N(C)C)c(F)cn1 (some centres unmarked) [Example 3]

# Target: T1, human GPR40
# Assay: Inositol Phosphate Turnover (IP1) Assay 2
# Type: cell-based
# Details: HEK cells stably expressing human GPR40; 15,000 cells per well; compound acoustically transferred; CisBio IP-One kit
# Procedure, shortened: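 HEK cells stably expressing human GPR40, plated 16 h beforehand, were exposed to compound in stimulation buffer for 60 min at 37 °C. IP1 accumulation was detected by HTRF (665/620 nm ratio) after 60 min with detection reagents and converted to IP1 concentration from a same-day standard curve.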
row,EC50 [nM],SMILES
1,4.6,COc1cc(-c2ccc([C@H]3CCc4ccc([C@H](C5CC5)[C@H](C)C(=O)O)cc4O3)cc2CN2CCC[C@H]2C)c(F)cn1 [Example 137]
2,1.1,COc1cc(-c2ccc([C@@H]3CCc4ccc([C@H](C5CC5)[C@H](C)C(=O)O)cc4O3)cc2CN2CCC[C@H]2C)c(F)cn1 [Example 141]
3,0.3,COc1cc(-c2ccc([C@@H]3CCc4ccc([C@H](C5CC5)[C@H](C)C(=O)O)cc4O3)cc2CN2CCCC(C)(C)C2)c(F)cn1 [Example 143]
4,0.3,COc1cc(-c2ccc([C@H]3CCc4ccc([C@H](C5CC5)[C@H](C)C(=O)O)cc4O3)cc2CN2CCCCC23CC3)c(F)cn1 [Example 144]
5,1.8,COc1cc(-c2ccc([C@H]3CCc4ccc([C@H](C5CC5)[C@H](C)C(=O)O)cc4O3)cc2CN2CCCC2(C)C)c(F)cn1 [Example 146]
6,0.7,COc1cc(-c2ccc([C@H]3CCc4ccc([C@H](C5CC5)[C@H](C)C(=O)O)cc4O3)cc2CN2[C@H](C)CC[C@H]2C)c(F)cn1 [Example 147]
7,2,COc1cc(-c2ccc([C@@H]3CCc4ccc([C@H](C5CC5)[C@H](C)C(=O)O)cc4O3)cc2CN2CCCCC2)c(F)cn1 [Example 151]
8,1.1,COc1cc(-c2ccc([C@@H]3CCc4ccc([C@H](C5CC5)[C@H](C)C(=O)O)cc4O3)cc2CN2CCCC[C@H]2C)c(F)cn1 [Example 153]
9,1.3,COc1cc(-c2ccc([C@@H]3CCc4ccc([C@H](C5CC5)[C@H](C)C(=O)O)cc4O3)cc2CN2CCCC[C@@H]2C)c(F)cn1 [Example 154]
10,1.8,COc1cc(-c2ccc([C@@H]3CCc4ccc([C@H](C5CC5)[C@H](C)C(=O)O)cc4O3)cc2CN2CCC(C)(C)CC2)c(F)cn1 [Example 155]
11,0.6,COc1cc(-c2ccc([C@@H]3CCc4ccc([C@H](C5CC5)[C@H](C)C(=O)O)cc4O3)cc2CN2[C@H](C)CC[C@H]2C)c(F)cn1 [Example 161]
12,0.3,COc1cc(-c2ccc([C@H]3CCc4ccc([C@H](C5CC5)[C@H](C)C(=O)O)cc4O3)cc2CN2CCCCC2(C)C)c(F)cn1 [Example 166]
13,1.7,COc1cc(-c2ccc([C@H]3CCc4ccc([C@H](C5CC5)[C@H](C)C(=O)O)cc4O3)cc2CN2CCC(C)(C)CC2)c(F)cn1 [Example 169]
14,41,"COc1cc(-c2cc(F)c(C3CCc4ccc([C@H](C5CC5)[C@H](C)C(=O)O)cc4O3)cc2CN2CCCC2)ccn1 (stereo partly drawn) [Example 180, 1RS, (2S, 3R)-3-cyclopropyl-3-(2-(2-fluoro-4-(2-methoxypyridin-4-yl)-5-(pyrrolidin-1-ylmethyl)phenyl)chroman-7-yl)-2-methylpropanoic acid]"

# Further lines, the compound ahead of its results:
row,SMILES,EC50 [nM]
1,COc1cc(-c2ccc([C@@H]3CCc4ccc([C@H](C5CC5)[C@H](C)C(=O)O)cc4O3)cc2CN2CCC[C@@H]2C)c(F)cn1 [Example 140],1.8
2,COc1cc(-c2ccc([C@H]3CCc4ccc([C@H](C5CC5)[C@H](C)C(=O)O)cc4O3)cc2CN2CCCC(C)(C)C2)c(F)cn1 [Example 142],1.1
3,CCN(CC)Cc1cc([C@H]2CCc3ccc([C@H](C4CC4)[C@H](C)C(=O)O)cc3O2)ccc1-c1cc(OC)ncc1F [Example 145],2.7
4,COc1cc(-c2ccc([C@H]3CCc4ccc([C@H](C5CC5)[C@H](C)C(=O)O)cc4O3)cc2CN2C3CCC2CC3)c(F)cn1 [Example 148],4.2
5,COc1cc(-c2ccc([C@H]3CCc4ccc([C@H](C5CC5)[C@H](C)C(=O)O)cc4O3)cc2CNCC(F)(F)F)c(F)cn1 [Example 149],2.5
6,COc1cc(-c2ccc([C@@H]3CCc4ccc([C@H](C5CC5)[C@H](C)C(=O)O)cc4O3)cc2CNCC(F)(F)F)c(F)cn1 [Example 150],1
7,COc1cc(-c2ccc([C@@H]3CCc4ccc([C@H](C5CC5)[C@H](C)C(=O)O)cc4O3)cc2CN2CCCCC2(C)C)c(F)cn1 [Example 152],0.5
8,COc1cc(-c2ccc([C@H]3CCc4ccc([C@H](C5CC5)[C@H](C)C(=O)O)cc4O3)cc2CN2CCC2(C)C)c(F)cn1 [Example 156],8.3
9,COc1cc(-c2ccc([C@@H]3CCc4ccc([C@H](C5CC5)[C@H](C)C(=O)O)cc4O3)cc2CN2CCC2(C)C)c(F)cn1 [Example 157],4.2
10,CCN(CC)Cc1cc([C@@H]2CCc3ccc([C@H](C4CC4)[C@H](C)C(=O)O)cc3O2)ccc1-c1cc(OC)ncc1F [Example 159],3.3
11,COc1cc(-c2ccc([C@@H]3CCc4ccc([C@H](C5CC5)[C@H](C)C(=O)O)cc4O3)cc2CN2CCCC2(C)C)c(F)cn1 [Example 160],2.5
12,COc1cc(-c2ccc([C@@H]3CCc4ccc([C@H](C5CC5)[C@H](C)C(=O)O)cc4O3)cc2CN2C3CCC2CC3)c(F)cn1 [Example 162],5.4
13,COC[C@H]1CCCN1Cc1cc([C@H]2CCc3ccc([C@H](C4CC4)[C@H](C)C(=O)O)cc3O2)ccc1-c1cc(OC)ncc1F [Example 163],3.3
14,COC[C@H]1CCCN1Cc1cc([C@@H]2CCc3ccc([C@H](C4CC4)[C@H](C)C(=O)O)cc3O2)ccc1-c1cc(OC)ncc1F [Example 164],1.6
15,COc1cc(-c2ccc([C@H]3CCc4ccc([C@H](C5CC5)[C@H](C)C(=O)O)cc4O3)cc2CN2CCCCC2)c(F)cn1 [Example 165],3.9
16,COc1cc(-c2ccc([C@H]3CCc4ccc([C@H](C5CC5)[C@H](C)C(=O)O)cc4O3)cc2CN2CCCC[C@H]2C)c(F)cn1 [Example 167],2.2
17,COc1cc(-c2ccc([C@H]3CCc4ccc([C@H](C5CC5)[C@H](C)C(=O)O)cc4O3)cc2CN2CCCC[C@@H]2C)c(F)cn1 [Example 168],2.9
